# {Fluorescein} = fluorescein label (binding site for anti-fluorescein Fab-HRP); {Biotin} = biotin (capture probe anchor)
# Test system: bacterial 16S rRNA
# Experiment: Amperometric detection of bacterial 16S rRNA, statements over several targets (Examples 2, 3)
# Assay type: binding
# Details: previous studies; no gap between hybridization sites
# Description: Sensor characterization and surface functional layer preparation. Microfabricated electrochemical sensor arrays with an alkanethiolate self-assembled monolayer (SAM) were obtained from GeneFluidics (Monterey Park, Calif.). SAM integrity was confirmed by cyclic voltammetry (CV) (1) using a 16-channel potentiostat (GeneFluidics). After CV characterization, sensor arrays were washed and dried. Washing steps were carried out by applying a stream of deionized H2O to the sensor surface for approximately 2-3 sec followed by 5 sec of drying under a stream of nitrogen. To functionalize the sensor surface, 2.5 μl of 0.5 U/ml streptavidin (Calbiochem, San Diego, Calif.) in 100 mM phosphate buffered saline, pH 7.4 was added to the alkanethiol activated sensors, incubated for 10 min at room temperature and washed off. Biotinylated capture probes (2.5 μl, 1 μM in GeneFluidics' Probe Diluent) were added to the streptavidin-coated sensors. […]
# Amperometric Detection of bacterial 16S rRNA. […] Amperometric current vs. time was measured using a multichannel potentiostat (GeneFluidics). The voltage was fixed at −200 mV (vs. reference), and the electroreduction current was measured at 60 sec after the HRP redox reaction reached steady state. All samples were analyzed in duplicate. […] Positive signals are determined by comparing the signals with the background using paired T test. […]
substance,measurement,value
"UNI: Universal Bacterial probe pair: capture 797 (27 mer) SEQ ID NO: 13, detector 766 (31 mer) SEQ ID NO: 14 (DNA 1 CATCGTTTACGGCGTGGACTACCAGGG; DNA 2 TATCTAATCCTGTTTGCTCCCCACGCTTTCG; DNA 1: DNA, 5' {Biotin}, backbone and methylation of C not given here; DNA 2: DNA, 5' {Fluorescein}, backbone and methylation of C not given here)",higher signals than the species-specific probes with 6 bp gap,1.5-4 fold
